From patent US6140368A, “Naphthols useful in antiviral methods” (The Regents of the University of California, priority 1998, dated 2000)
Values joined by “and” are separate entries in the source; they are usually repeats but may differ in a detail not shown here. Equal entries are not always repeated. Structures can show the parent of a compound that is named as a salt. Where two headings read alike, the source gives them in different places.

Experiments:
[1] = system: mutant strains of HIV reverse transcriptase; assay: Reverse transcriptase mutant assays, mutants overall; format: biochemical
Protocol: (§1) The mutants were constructed using BspMI cassette mutagenesis as described previously by Boyer et al. (J Virol., 66:1031-1039 and 7533-7537 (1992)), which is hereby incorporated by reference. The RT assay has also been previously described by Boyer et al. (PNAS USA, 91:4882-4886 (1994)), which is also incorporated by reference. Briefly, RNA dependent DNA polymerase activity is assayed using purified RT protein and a poly(rC).olio(dG) template-primer as the substrate. The protein (1 μg) and substrate are assayed in a total reaction volume of 100 μl containing 0.01 unites poly(rC).olio(dG), 0.02 mM dGTP, 0.002 mCi [α-^32 P]dGTP, and a buffer containing 25 mM tris (pH 8.0), 75 mM KCL, 8.0 mM MgCl2, 2.0 mM dithiothreitol, and 10 mM 3-[(3-cholamidopropyl) diethylammoniol]-1-propane-sulfonate containing acetylated bovine serum albumin at 100 μg/ml. The assay mixture is incubated for 30 minutes, and then stopped by the addition of 50 μl of a 10 mg/ml solution of sheared and denatured salmon sperm DNA followed by 3.0 ml 10 percent trichloroacetic acid. The labeled polymer is collected by suction filtration on Whatman glass GF/C and counted.

HIV integrase [2] = molecular target: T1, HIV integrase (Human immunodeficiency virus type 1 group M subtype B, UniProt P04585); assay: biochemical; conditions: read-out: Inhibition of strand transfer (IC50)
[3] = molecular target: L74V mutant reverse transcriptase (Human immunodeficiency virus type 1 BH10, UniProt P03366, L673V); assay: Reverse transcriptase mutant assay, L74V; format: biochemical, HIV-1
WT reverse transcriptase = molecular target: T2, WT reverse transcriptase (Human immunodeficiency virus type 1 BH10, UniProt P03366); assay: Reverse transcriptase mutant assay, WT; format: biochemical, HIV-1
T2 construct: mature chain of Gag-Pol polyprotein
Protocol: as §1

[4] = molecular target: AZT-21 (M41L/D67N/K70R/T215Y/K219Q) mutant reverse transcriptase (Human immunodeficiency virus type 1 BH10, UniProt P03366, D666N/K669R/K818Q/M640L/T814Y); assay: Reverse transcriptase mutant assay, AZT-21; format: biochemical, HIV-1; conditions: for % Activity Remaining: AZT-21 {M41L/D67N/K70R/T215Y/K219Q}
[5] = molecular target: T3, E138K mutant reverse transcriptase (Human immunodeficiency virus type 1 BH10, UniProt P03366, E737K); assay: biochemical
T3 construct: mature RT cut from Gag-Pol polyprotein

[6] = molecular target: T4, Y181I mutant reverse transcriptase (Human immunodeficiency virus type 1 BH10, UniProt P03366, Y780I); assay: biochemical
T4 construct: mature chain of Gag-Pol polyprotein

[7] = molecular target: T5, L100I mutant reverse transcriptase (Human immunodeficiency virus type 1 BH10, UniProt P03366, L699I); assay: biochemical
T5 construct: mature RT cut from Gag-Pol polyprotein

[8] = molecular target: T6, V106A mutant reverse transcriptase (Human immunodeficiency virus type 1 BH10, UniProt P03366, V705A); assay: biochemical; format: biochemical
T6 construct: mature chain of Gag-Pol polyprotein

HIV integrase [9] = molecular target: T1, HIV integrase; assay: biochemical; conditions: read-out: Inhibition of 3' processing activity (IC50)
[10] = molecular target: T7, K103N mutant reverse transcriptase (Human immunodeficiency virus type 1 BH10, UniProt P03366, K702N); assay: biochemical
T7 construct: mature RT cut from Gag-Pol polyprotein

[11] = molecular target: HIV reverse transcriptase (Human immunodeficiency virus type 1 group M subtype B, UniProt P03366); assay: Reverse transcriptase scintillation proximity assay (Example 4, Table 2); format: biochemical; conditions: read-out: IC50 (RT activity)
How it was run: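 Purified RT with biotinylated 17mer/50mer RNA-DNA template-primer (39 nm), pH 8.0 Tris with 10 mM MgCl2, 60 mM KCl, dNTPs plus tritiated dTTP; inhibitor preincubated 10 min at 37 °C before enzyme, reaction 3 min. Incorporation read by streptavidin SPA counting.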

HIV [12] = conditions: cited from earlier work
293T cells = assay: Toxicity to 293T cells by growth curves and trypan blue exclusion; conditions: concentrations greater than ten times IC50 against HIV RT
HIV [13] = assay: Cell-based anti-HIV (XTT) assay (National Institutes of Health); conditions: run by the National Institutes of Health
Text: The anti-viral evaluations branch of the National Institutes of Health also ran cell-based anti-HIV (XTT) assays and reverse transcriptase (RT) assays on a number of the novel compounds. […] These were: 31, 32, 35, 36, 53, 54, 57, 58, 91, 99, and 103.

O=C(Nc1ccc2c(O)cc(S(=O)(=O)O)cc2c1)Nc1ccc2c(O)cc(S(=O)(=O)O)cc2c1 [Compound 1, carbonyl-J]
activity against mutant reverse transcriptases [1]: displays activity against non-nucleoside mutants as well as other mutants
IC50 (HIV integrase [2]): 2.5 µM
% Activity Remaining ([3]; 10 μM): 34%
% Activity Remaining ([3]; 50 μM): 6%
remaining activity at 10 µM (WT reverse transcriptase; 10 μM): 29%
remaining activity at 50 µM (WT reverse transcriptase; 50 μM): 3%
% Activity Remaining ([4]; 10 μM): 33%
% Activity Remaining ([4]; 50 μM): 4%
difference in inhibition with respect to the wild type enzyme ([4]; mutant M41L/D67N/K70R/T215Y/K219Q): virtually no difference in inhibition was found with respect to the wild type enzyme
remaining activity at 10 µM ([5]; 10 μM): 29%
remaining activity at 50 µM ([5]; 50 μM): 4%
remaining activity at 10 µM ([6]; 10 μM): 18%
remaining activity at 50 µM ([6]; 50 μM): 1%
remaining activity at 10 µM ([7]; 10 μM): 11%
remaining activity at 50 µM ([7]; 50 μM): 1%
% Activity Remaining ([8]; 10 μM): 33%
remaining activity at 50 µM ([8]; 50 μM): 4%
IC50 (HIV integrase [9]): 2.5 µM
remaining activity at 10 µM ([10]; 10 μM): 32%
remaining activity at 50 µM ([10]; 50 μM): 3%
IC50 [11]: ~5 µM and 5 µM

COc1ccccc1N=Nc1c(S(=O)(=O)[O-])cc2cc(NC(=O)Nc3ccc4c(O)c(N=Nc5ccc(S(=O)(=O)[O-])cc5C)c(S(=O)(=O)[O-])cc4c3)ccc2c1O.[Na+].[Na+].[Na+] [direct fast scarlet 4BSW]
activity in AIDS antiviral screens (HIV [12]): confirmed active

O=C(O)/C=C/c1ccc(N=Nc2c(S(=O)(=O)O)cc3cc(NC(=O)Nc4ccc5c(O)c(N=Nc6ccc(/C=C/C(=O)O)cc6)c(S(=O)(=O)O)cc5c4)ccc3c2O)cc1 [Compound 5]
IC50 (HIV integrase [2]): 1 µM
toxicity to cells (293T cells): not toxic even at concentrations greater than ten times its IC50
IC50 (HIV integrase [9]): 0.9 µM
conclusion of cell-based anti-HIV (XTT) assays and reverse transcriptase (RT) assays (HIV [13]): confirmed active
IC50 [11]: 0.2 µM

Cc1ccccc1N=Nc1c(S(=O)(=O)[O-])cc2cc(NC(=O)Nc3ccc4c(O)c(N=Nc5ccc6cc(S(=O)(=O)[O-])ccc6c5)c(S(=O)(=O)[O-])cc4c3)ccc2c1O.[Na+].[Na+].[Na+] [brilliant paper scarlet G]
activity in AIDS antiviral screens (HIV [12]): confirmed active

CCOc1cc(N=Nc2cc(Cl)c(S(=O)(=O)O)cc2Cl)c2cc(S(=O)(=O)O)ccc2c1N=Nc1c(S(=O)(=O)O)cc2cc(NC(=O)c3ccc(N)cc3)ccc2c1O [calcomine scarlet 4BNC, 2-naphthalenesulfonic acid, 7-[(4-aminobenzoyyl)amino]-3-[[4-[(2,5-dichloro-4-sulfophenyl)azo]-2-ethoxy-6-sulfo-1-naphthalenyl]azo]-4-hydroxy-,trisodium salt (9CI)]
activity in AIDS antiviral screens (HIV [12]): confirmed active
